Data on 29 compounds can be found in ChEMBL document CHEMBL1857833, “Screening and optimization of specific chemical series against human African Trypanosomiasis (HAT)”.

Converted amounts (≈) assume the structure as drawn.

Broadly, the IC50 is the point on the concentration scale where inhibition reaches its midpoint.

Data set [1] is described as follows: DNDI: Cytotoxicity against L929 mouse fibroblasts, CYTO-SP, 24 hour. The note with it: mouse, L929 mouse fibroblasts. Type of data set: toxicity, cell-based.
Data set [2] is described as follows: DNDI: Cytotoxicity against L929 mouse fibroblasts, 72 hour. The data set is classed as toxicity, cell-based. The settings on record: mouse, L929 mouse fibroblasts.
A further data set relates to Trypanosoma brucei. Nature of the data set: DNDI: Inhibition of Human African Trypanosomiasis, SBRI 427, in vitro. The data set is classed as functional, organism-based.
Setting [3] is: Trypanosoma brucei, SBRI 427, read-out: IC50.

Compound `CCCCCC(C)NCc1coc(-c2ccc(C(F)(F)F)cc2)n1` (stereo not drawn) showed an IC50 at 24 h in data set [1] greater than 50 µg/mL. Moreover, the IC50 at 72 h in data set [2] stood at 3.55 µg/mL (≈ 10.4 µM). Moreover, in the data set on Trypanosoma brucei (setting [3]), the IC50 stood at 1.63 µg/mL (≈ 4.79 µM).

`CCCCCC(C)NCc1cc(-c2ccccc2)n(C)n1` (stereo not drawn) showed a 50% inhibitory concentration (IC50) at 24 h in data set [1] of 50 µg/mL (≈ 175 µM). For the same compound, it took 12.8 µg/mL (≈ 45 µM) to reach half-maximal inhibition in data set [2] (IC50 at 72 h). For the same compound, the IC50 in the data set with Trypanosoma brucei (setting [3]) came out at 4.05 µg/mL (≈ 14.2 µM).

For the compound `CCCCCC(C)NCc1ccc(-c2ccccc2)s1` (stereo not drawn), half-maximal inhibition in data set [1] (IC50 at 24 h) was put at 23 µg/mL (≈ 80 µM). In data set [2], this compound displayed an IC50 at 72 h of 7.16 µg/mL (≈ 24.9 µM). The IC50 in the data set with Trypanosoma brucei (setting [3]) is 1.8 µg/mL (≈ 6.26 µM).

In data set [1], `CCCCCC(C)NCc1coc(-c2ccc(OC(F)(F)F)cc2)n1` (stereo not drawn) came in with an IC50 at 24 h greater than 50 µg/mL. This compound yielded an IC50 at 72 h in data set [2] of 3.56 µg/mL (≈ 9.99 µM). Moreover, in the data set with Trypanosoma brucei (setting [3]), the IC50 amounted to 1.11 µg/mL (≈ 3.11 µM).

Take `CCCCC[C@@H](C)NCc1coc(-c2ccc(Cl)cc2)n1`: the IC50 at 24 h in data set [1] was greater than 50 µg/mL. 3.18 µg/mL (≈ 10.4 µM) corresponded to half-maximal inhibition in data set [2] (IC50 at 72 h). In addition, the IC50 in the data set with Trypanosoma brucei (setting [3]) was 0.92 µg/mL (≈ 3 µM).

In data set [1], `COc1ccc(Oc2ncccc2/C(=N/O)NC2CCCCC2)cc1` came in with an IC50 at 24 h greater than 50 µg/mL. Also, the IC50 at 72 h in data set [2] is greater than 10 µg/mL. Moreover, the results for the half-inhibitory concentration (IC50) with Trypanosoma brucei and with Trypanosoma brucei (setting [3]) were 0.33 µg/mL (≈ 0.967 µM) and 0.29 µg/mL (≈ 0.849 µM), respectively.

In turn, `CCCCCC(C)NCc1coc(-c2ccccc2C)n1` (stereo not drawn) gave an IC50 at 24 h in data set [1] of 16 µg/mL (≈ 55.9 µM). This compound showed an IC50 at 72 h in data set [2] of 3.6 µg/mL (≈ 12.6 µM). For the same compound, the IC50 with Trypanosoma brucei (setting [3]) amounted to 4.1 µg/mL (≈ 14.3 µM).

In the case of `CCCCCC(C)NCc1coc(-c2cc(F)cc(F)c2)n1` (stereo not drawn), in data set [1], the IC50 at 24 h worked out at 42 µg/mL (≈ 136 µM). For the same compound, the half-maximal inhibitory concentration (IC50) at 72 h in data set [2] is 7.08 µg/mL (≈ 23 µM). The IC50 in the data set on Trypanosoma brucei (setting [3]) is 1.71 µg/mL (≈ 5.55 µM).

Compound `Clc1ccc(-c2nc(CNC3CCCCC3)co2)cc1` had an IC50 at 24 h in data set [1] greater than 50 µg/mL. Besides, half-maximal inhibition in data set [2] (IC50 at 72 h) was put at 6.85 µg/mL (≈ 23.6 µM). In addition, the IC50 with Trypanosoma brucei (setting [3]) was 1.86 µg/mL (≈ 6.4 µM).

For the compound `CCCCCC(C)NCc1cc(-c2ccccc2)nn1C` (stereo not drawn), the IC50 at 24 h in data set [1] came out at 50 µg/mL (≈ 175 µM). In data set [2], this compound yielded an IC50 at 72 h of 12.7 µg/mL (≈ 44.5 µM). The IC50 in the data set on Trypanosoma brucei (setting [3]) is 3.38 µg/mL (≈ 11.8 µM).

As to `CCCCCC(C)NCc1coc(-c2ccc(F)cc2)n1` (stereo not drawn), the IC50 at 24 h in data set [1] was determined as 17 µg/mL (≈ 58.5 µM). In addition, the IC50 at 72 h in data set [2] was 7.1 µg/mL (≈ 24.5 µM). For the same compound, in the data set with Trypanosoma brucei (setting [3]), the IC50 was determined as 2.71 µg/mL (≈ 9.33 µM).

For the compound `CCCCCC(C)NCc1coc(-c2cccc3ccccc23)n1` (stereo not drawn), in data set [1], the IC50 at 24 h turned out to be 16 µg/mL (≈ 49.6 µM). The compound further yielded an IC50 at 72 h in data set [2] of 6.56 µg/mL (≈ 20.3 µM). The IC50 in the data set on Trypanosoma brucei (setting [3]) was found to be 1.14 µg/mL (≈ 3.54 µM).

The compound `CCCCCC(C)OCc1coc(-c2ccccc2)n1` (stereo not drawn) had an IC50 at 24 h in data set [1] greater than 50 µg/mL. Besides, the IC50 at 72 h in data set [2] was 27.7 µg/mL (≈ 101 µM). The IC50 in the data set on Trypanosoma brucei (setting [3]) is greater than 5 µg/mL.

In turn, `CCOc1ccc(-c2nc(CNC3CC4CCC3C4)co2)cc1` (stereo not drawn) registered an IC50 at 24 h in data set [1] of 35 µg/mL (≈ 112 µM). In data set [2], this compound gave an IC50 at 72 h of 4.62 µg/mL (≈ 14.8 µM). In addition, the half-inhibitory concentration (IC50) with Trypanosoma brucei (setting [3]) turned out to be 4.1 µg/mL (≈ 13.1 µM).

On to `CCCCC[C@H](C)NCc1coc(-c2ccc(Cl)cc2)n1`, for which the IC50 at 24 h in data set [1] worked out at 37 µg/mL (≈ 121 µM). This compound registered an IC50 at 72 h in data set [2] of 7.01 µg/mL (≈ 22.8 µM). Also, the IC50 with Trypanosoma brucei (setting [3]) was 1.76 µg/mL (≈ 5.74 µM).

Regarding `CCN(CC)Cc1coc(-c2ccc(Cl)cc2)n1`, the IC50 at 24 h in data set [1] is greater than 50 µg/mL. This compound also came in with a 50% inhibitory concentration (IC50) at 72 h in data set [2] of 39.5 µg/mL (≈ 149 µM). Moreover, the IC50 in the data set with Trypanosoma brucei (setting [3]) is greater than 5 µg/mL.

As to `CCCCC[C@@H](C)N(Cc1coc(-c2ccc(Cl)cc2)n1)Cc1coc(-c2ccc(Cl)cc2)n1`, the concentration for half-maximal inhibition (IC50) at 24 h in data set [1] was greater than 50 µg/mL. In data set [2], this compound showed an IC50 at 72 h greater than 50 µg/mL. Further, the IC50 in the data set with Trypanosoma brucei (setting [3]) was greater than 5 µg/mL.

Turning to `CCCCCC(C)NCc1coc(-c2cc3ccccc3s2)n1` (stereo not drawn), the IC50 at 24 h in data set [1] is greater than 50 µg/mL. Besides, the IC50 at 72 h in data set [2] was determined as 3.46 µg/mL (≈ 10.5 µM). Moreover, the IC50 with Trypanosoma brucei (setting [3]) was found to be 1.36 µg/mL (≈ 4.14 µM).

Regarding `Clc1ccc(-c2nc(CNC3CC4CCC3C4)co2)cc1` (stereo not drawn), in data set [1], the IC50 at 24 h worked out at 40.7 µg/mL (≈ 134 µM). The IC50 at 72 h in data set [2] amounted to 3.47 µg/mL (≈ 11.5 µM). The IC50 with Trypanosoma brucei (setting [3]) is 2.81 µg/mL (≈ 9.28 µM).

With `O=C(O)c1coc(-c2ccccc2)n1`, the IC50 at 24 h in data set [1] is greater than 50 µg/mL. Besides, the IC50 at 72 h in data set [2] is greater than 50 µg/mL. For the same compound, in the data set with Trypanosoma brucei (setting [3]), the half-inhibitory concentration (IC50) was greater than 5 µg/mL.

With `CC1CC(NCc2coc(-c3sccc3Cl)n2)CC(C)(C)C1` (stereo not drawn), the IC50 at 24 h in data set [1] was greater than 50 µg/mL. In data set [2], this compound displayed an IC50 at 72 h greater than 50 µg/mL. In addition, the IC50 in the data set on Trypanosoma brucei (setting [3]) was greater than 5 µg/mL.

Turning to `CCCCCC(C)NCc1cccc(-c2ccccc2)c1` (stereo not drawn), the 50% inhibitory concentration (IC50) at 24 h in data set [1] is greater than 50 µg/mL. In data set [2], the midpoint of inhibition, the IC50 at 72 h, lay at 3.39 µg/mL (≈ 12 µM). Also, the 50% inhibitory concentration (IC50) with Trypanosoma brucei (setting [3]) was determined as 0.81 µg/mL (≈ 2.88 µM).

For `C[C@@H](NCc1coc(-c2ccc(Cl)cc2)n1)C1CCCCC1`, the IC50 at 24 h in data set [1] is greater than 50 µg/mL. This compound also returned an IC50 at 72 h in data set [2] of less than 3.13 µg/mL. Besides, the IC50 in the data set on Trypanosoma brucei (setting [3]) was found to be 1.74 µg/mL (≈ 5.46 µM).

In data set [1], `CCCCCC(C)NCc1coc(-c2cccc(C)c2)n1` (stereo not drawn) registered an IC50 at 24 h of 16 µg/mL (≈ 55.9 µM). Further, the IC50 at 72 h in data set [2] was determined as 7.13 µg/mL (≈ 24.9 µM). Also, in the data set with Trypanosoma brucei (setting [3]), the IC50 is 3.33 µg/mL (≈ 11.6 µM).

`CCCCCC(C)NCc1coc(-c2ccc(SC(F)(F)F)cc2)n1` (stereo not drawn): the IC50 at 24 h in data set [1] is greater than 50 µg/mL. Moreover, the IC50 at 72 h in data set [2] worked out at 3.64 µg/mL (≈ 9.77 µM). Besides, the IC50 in the data set with Trypanosoma brucei (setting [3]) was determined as 1.12 µg/mL (≈ 3.01 µM).

For the compound `CCCCCC(C)NCc1coc(-c2ccccc2OC(F)(F)F)n1` (stereo not drawn), the IC50 at 24 h in data set [1] amounted to 37 µg/mL (≈ 104 µM). Further, 3.23 µg/mL (≈ 9.06 µM) corresponded to half-maximal inhibition in data set [2] (IC50 at 72 h). For the same compound, the IC50 in the data set on Trypanosoma brucei (setting [3]) was determined as 1.48 µg/mL (≈ 4.15 µM).

In the case of `CCCCCC(C)NCc1ccc(-c2ccccc2)o1` (stereo not drawn), the IC50 at 24 h in data set [1] is 32 µg/mL (≈ 118 µM). This compound also had an IC50 at 72 h in data set [2] of 7.14 µg/mL (≈ 26.3 µM). Besides, the IC50 with Trypanosoma brucei (setting [3]) turned out to be 3.62 µg/mL (≈ 13.3 µM).

As for `CCCCCC(C)NCc1coc(-c2ccccc2F)n1` (stereo not drawn), in data set [1], the IC50 at 24 h was found to be 13 µg/mL (≈ 44.8 µM). In data set [2], this compound gave an IC50 at 72 h of 3.59 µg/mL (≈ 12.4 µM). For the same compound, the IC50 in the data set on Trypanosoma brucei (setting [3]) was 1.82 µg/mL (≈ 6.27 µM).

In the case of `CCCCCC(C)NCc1coc(-c2cccs2)n1` (stereo not drawn), the IC50 at 24 h in data set [1] was greater than 50 µg/mL. The compound further gave a 50% inhibitory concentration (IC50) at 72 h in data set [2] of 13.5 µg/mL (≈ 48.6 µM). In the data set with Trypanosoma brucei (setting [3]), the IC50 came to 3.83 µg/mL (≈ 13.8 µM).
